Data on four compounds can be found in article PMC10363981, “Optimizing the enzymatic release of MMAE from isoDGR-based small molecule drug conjugate by incorporation of a GPLG-PABC enzymatically cleavable linker” (Frontiers in Pharmacology, 2023).

Data set [1] relates to SK-OV-3 human ovarian cancer cells. Nature of the data set: In vitro antiproliferative activity, MTT, 72 h continuous treatment (no-washout). Particulars: MTT, 72 h continuous treatment, no washout, 5% serum final; triplicate, repeated three times. The class given is cell-based. How it is done: (§1) U87MG human malignant glioma, SK-MEL-28 human melanoma, SK-OV-3 human ovarian cancer, and A549 human lung cancer cell lines were purchased from ATCC. The cells were cultured in Dulbecco’s Modified Eagle’s Medium (DMEM; Biosera, Nuaille, France), supplemented with 10% heat-inactivated Fetal Bovine Serum (FBS; Biosera), and with 1% Penicillin/Streptomycin (Biosera). Cells were cultured in sterile T75 flasks with ventilation cap (Sarstedt, Nümbrecht, Germany) at 37 °C in a humidified atmosphere with 5% CO2 in ESCO CelCulture Incubator (ESCO, Friedberg, Germany). Manipulations with the cells were performed in biosafety cabinet (laminar) ESCO Sentinel Gold class II model AC2-4E8 (ESCO).
(§2) After standard trypsinization and harvesting cells by trypsin (Biosera), ethylenediaminetetraacetic acid (EDTA; Biosera) and PBS solution, 6×10^3 cells per well were seeded in serum containing (10%) growth medium to 96-well plates with flat bottom (Eppendorf, Hamburg, Germany), in a 100 μL volume per well, and incubated at 37°C.
(§3) In the wash out experiment, cells were incubated with the compounds (5% serum final) for 30 min, then they were washed out, and additionally incubated in growth medium (5% serum final) up to 72 h. The control wells were treated only with serum free medium (5% serum final).
(§4) For the evaluation of the in vitro antiproliferative activity of compounds, the cell viability was determined by MTT assay (3-(4,5-dimethylthiazol-2-yl)-2,5-diphenyl-tetrazolium bromide) obtained from Duchefa Biochemie (Haarlem, Netherlands).
(§5) 22 µL of MTT solution (5 mg/mL in PBS, 0.5 mg/mL final) was added to each well and after 2 h incubation at 37°C, the supernatant was removed. […] Average background absorbance (DMSO-Ethanol) was subtracted from absorbance values of control and treated wells, and cell viability was determined relative to untreated (control) wells where cell viability was arbitrarily set to 100%. […] The experiments were done in triplicate and each experiment was repeated three times.

Data set [2] concerns A549 human lung cancer cells. The description is as above. The class given is cell-based. Particulars: MTT, 72 h continuous treatment, no washout, 5% serum final; αVβ3 low expressing line; triplicate, repeated three times. How it is done:
as §1, §2, §3, §4, §5

The subject of a further data set is U87MG cells. Nature of the data set: In vitro antiproliferative activity in the presence of MMP-2 inhibitor. The class given is cell-based, human. Particulars: 16 h pre-incubation with MMP-2 inhibitor 10 µM, then 72 h continuous treatment, 5% serum final; average ± SD, triplicate; read-out: IC50 MMP-2 inhibitor + Treatment 72 h U87MG (αVβ3 +). As for the experimental part: as §4
(§6) 22 µL of MTT solution (5 mg/mL in PBS, 0.5 mg/mL final) was added to each well and after 2 h incubation at 37°C, the supernatant was removed. The precipitated purple formazan crystals were dissolved in 100 µL of a 1:1 solution of dimethylsulfoxide (DMSO; Merck, St. Louis, MO, United States): 96% Ethanol (Molar Chemicals Kft., Halásztelek, Hungary) and the absorbance was measured after 15 min at λ = 570 nm by using microplate reader CLARIOstar Plus (BMG Labtech, Ortenberg, Germany). Average background absorbance (DMSO-Ethanol) was subtracted from absorbance values of control and treated wells, and cell viability was determined relative to untreated (control) wells where cell viability was arbitrarily set to 100%. Absorbance values of treated samples were normalized versus untreated control samples and interpolated by nonlinear regression analysis with GraphPad Prism 6 software (GraphPad, La Jolla, San Diego, CA, United States) to generate sigmoidal dose-response curves from which the 50% inhibitory concentration (IC50) values of the compounds were calculated and presented as nanomolar (nM) units. The experiments were done in triplicate and each experiment was repeated three times.
(§7) The conjugate 2 and the free MMAE were tested in presence of the MMP-2 inhibitor cis-9-octadecenoyl-N-hydroxylamine (Merck) dissolved in DMSO ([You et al., 2018]). The three αVβ3 integrin and MMP-2 overexpressing cancer cell lines (U87MG, SK-MEL-28, […]) were seeded with serum containing medium ([Ellijimi et al., 2018]; [Shim et al., 2019]) and, after 8 h, were washed-out. Then, 100 µL per well of MMP-2 inhibitor (10 µM final concentration) were added and cells were incubated for 16 h, prior to the treatment. Later, the conjugate 2 and free MMAE were dissolved in 10% serum containing medium and added to reach the same concentrations evaluated in the previous test in a final volume of 100 µL per well and incubated (5% serum final) continuously for 72 h of the treatment. The experiments were performed in triplicate.

The test system of the next data set is SK-MEL-28 cells. The data set is described as above. Particulars: 16 h pre-incubation with MMP-2 inhibitor 10 µM, then 72 h continuous treatment, 5% serum final; average ± SD, triplicate; read-out: IC50 MMP-2 inhibitor + Treatment 72 h SK-MEL-28 (αVβ3 +). The class given is cell-based, human. As for the experimental part: as §4, §6, §7
In another data set the test system is SK-OV-3 cells. The data set is described as above. The class given is cell-based, human. Particulars: 16 h pre-incubation with MMP-2 inhibitor 10 µM, then 72 h continuous treatment, 5% serum final; average ± SD, triplicate; read-out: IC50 MMP-2 inhibitor + Treatment 72 h SK-OV-3 (αVβ3 +). How it is done: as §4, §6, §7
Data set [3] relates to U87MG human malignant glioma cells. Nature of the data set: In vitro antiproliferative activity, MTT, 72 h continuous treatment (no-washout). The class given is cell-based. Particulars: MTT, 72 h continuous treatment, no washout, 5% serum final; triplicate, repeated three times. As for the experimental part:
as §1, §2
(§8) […] The control wells were treated only with serum free medium (5% serum final).
as §4, §5

Data set [4] deals with SK-MEL-28 human melanoma cells. Described as above. The class given is cell-based. Particulars: MTT, 72 h continuous treatment, no washout, 5% serum final; triplicate, repeated three times. How it is done:
as §1, §2, §8, §4, §5

The subject of data set [5] is SK-OV-3 human ovarian cancer cells. Nature of the data set: In vitro antiproliferative activity, "kiss-and-run" washout experiment (30 min + washout + up to 72 h). The class given is cell-based. Particulars: MTT, 30 min treatment, washout, further incubation up to 72 h, 5% serum final. How it is done:
as §1, §2, §3, §4, §5
(§9) Recently, a new protocol for evaluating the antiproliferative activity and the targeting ability of integrin-ligand based conjugates was developed by the group of Prof. […] In this procedure, which we named “kiss-and-run” experiment, after very short initial contact times (15–30 min) of the toxin with the cells in vitro, the solution is drained, and cells are resuspended in the culture medium for a 72 h incubation. This protocol is aimed at simulating the rapid clearance of the drugs that occurs in vivo in the extracellular tumor environment, thus highlighting the ability of the conjugate to bind the integrin receptor on the cell surface.

For data set [6], the system named is U87MG human malignant glioma cells. The description is as above. The class given is cell-based. Particulars: MTT, 30 min treatment, washout, further incubation up to 72 h, 5% serum final. As for the experimental part:
as §1, §2, §3, §4, §5, §9

Data set [7] relates to SK-MEL-28 human melanoma cells. The data set is described as above. The class given is cell-based. Particulars: MTT, 30 min treatment, washout, further incubation up to 72 h, 5% serum final. As for the experimental part:
as §1, §2, §3, §4, §5, §9

Data set [8] relates to A549 human lung cancer cells. The data set is described as above. The class given is cell-based. Particulars: MTT, 30 min treatment, washout, further incubation up to 72 h, 5% serum final; αVβ3 low expressing line. As for the experimental part: as §1, §2, §3, §4, §5, §9
For data set [9], the target named is T1, recombinant human MMP-2 protein (Active) (Homo sapiens, UniProt P08253).
T1 construct: with the active form of MMP-2 enzyme; purchased Abcam ab81550
T1 sequence (P08253 110-660): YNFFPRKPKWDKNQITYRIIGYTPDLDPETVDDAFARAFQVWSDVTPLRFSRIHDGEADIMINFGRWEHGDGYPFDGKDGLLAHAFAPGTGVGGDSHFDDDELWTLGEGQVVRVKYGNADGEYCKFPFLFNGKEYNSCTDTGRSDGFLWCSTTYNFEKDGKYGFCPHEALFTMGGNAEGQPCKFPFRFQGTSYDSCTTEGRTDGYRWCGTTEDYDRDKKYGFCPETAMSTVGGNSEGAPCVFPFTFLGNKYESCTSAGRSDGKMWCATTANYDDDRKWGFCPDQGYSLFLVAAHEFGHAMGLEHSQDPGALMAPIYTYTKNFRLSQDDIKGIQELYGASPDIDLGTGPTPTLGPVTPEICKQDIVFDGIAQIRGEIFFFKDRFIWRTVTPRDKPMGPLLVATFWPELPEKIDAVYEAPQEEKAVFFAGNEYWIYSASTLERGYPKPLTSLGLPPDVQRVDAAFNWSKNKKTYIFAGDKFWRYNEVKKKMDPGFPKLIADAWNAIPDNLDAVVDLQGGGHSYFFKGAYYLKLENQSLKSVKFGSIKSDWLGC
Nature of the data set: Enzymatic-cleavage assay with MMP-2 enzyme. The class given is in vitro ADME. Particulars: recombinant human MMP-2, enzyme:linker 1:20 (w/w), Tris·HCl buffer pH 7.4, 37 °C, 74 h, HPLC-UV 254 nm, by retention time vs free MMAE. As for the experimental part: The cleavage test with the MMP-2 enzyme was performed using recombinant human MMP-2 protein (Active) purchased from Abcam (ab81550). A buffer solution Tris∙HCl (50 mM), NaCl (0.2 M), CaCl2 (10 mM), Brij-35 (0.05%), ZnSO4 (50 µM), pH 7.4 was prepared in accordance with the literature ([Tauro et al., 2008]). A solution of EDTA (50 mM) was prepared for stopping the MMP-2 activity. For the assay, the MMP-2 enzyme (10 µg) was diluted with 100 µL Milli-Q Water, accordingly to the data sheet. A solution of the H2N-GPLG-PABC-MMAE 7 was prepared (0.105 mg in 0.881 mL of buffer solution). To start the assay, 25 µL MMP-2 enzyme was added to 475 µL of the linker solution to have 1:20 (w/w) enzyme: linker ratio. […] The resulting solution was diluted with 180 µL Milli-Q Water and 70 µL of acetonitrile (MeCN) and analyzed by analytical HPLC SHIMADZU LC-20AP equipped with diode array UV detector and LiChrosorb RP-18 (5 μm) C18 column. […]
Samples were analyzed using analytical HPLC SHIMADZU LC -20AP equipped with diode array UV detector and LiChrosorb® RP-18 (5 μm) C18 column, flow rate: 1 mL/min., gradient: from 90% (H2O + 0.1% TFA) / 10% (MeCN) to 40% (H2O + 0.1% TFA) / 60% (MeCN) in 16 min. to 10% (H2O + 0.1% TFA) / 90% (MeCN) in 9 min. to 10% (H2O + 0.1% TFA) / 90% (MeCN) in 5 min. to 90% (H2O + 0.1% TFA) / 10% (MeCN) in 5 min. to 90% (H2O + 0.1% TFA) / 10% (MeCN) in 5 min. […]

Where “and” joins values, the source holds several entries; their conditions need not be identical. Equal entries are not always repeated. *1 amine or outer side, *2 acyl side, *3 side chain or, on linkers, in order; H or OH if unused. Where a SMILES comes first, the peptide text is derived from it. [ ]: non-standard residue; d: D form. The star is where a group is joined. Dolaproine = CO[C@@H]([C@@H]1CCCN1)[C@@H](C)C(=O)O; Dil = CC[C@H](C)[C@H](NC)[C@@H](CC(=O)O)OC; PABC = O=C(OCc1ccc(N[*:1])cc1)[*:2]; X1 = C[C@@H](N*)[C@@H](O)c1ccccc1; NMeV = CN[C@H](C(=O)O)C(C)C Bounds are passed on as bounds.

As for `CC[C@H](C)[C@@H]([C@@H](CC(=O)N1CCC[C@H]1[C@H](OC)[C@@H](C)C(=O)N[C@H](C)[C@@H](O)c1ccccc1)OC)N(C)C(=O)[C@@H](NC(=O)[C@@H](NC)C(C)C)C(C)C` [MMAE, monomethyl auristatin E] (H-[NMeV]V[Dil][Dolaproine]-X1), the concentration for half-maximal inhibition (IC50) is 0.03 nM and 0.0307 nM in [1]; 0.0688 ± 0.0021 nM in data set [2]; 0.374 ± 0.132 nM with U87MG cells; 1.9 ± 0.778 nM in the data set with SK-MEL-28 cells; 0.0334 ± 0.0119 nM in the data set on SK-OV-3 cells; 0.225 ± 0.0126 nM in data set [3]. Besides, the IC50 in data set [4] was found to be 2.39 ± 0.395 nM; in data set [5], 206 ± 23.6 nM; in data set [6] it was 2130 ± 216 nM; in [7], 1400 ± 137 nM; in data set [8] it was 266 ± 16.1 nM. Moreover, in [4], the “IC50 72h SK-MEL-28” value is given as “very low nanomolar range”.

Take `CCCCCCCC/C=C\CCCCCCCC(=O)NO` [MMP-2 Inhibitor, cis-9-octadecenoyl-N-hydroxylamide]: the IC50 in the data set with U87MG cells, in the data set on SK-MEL-28 cells and in the data set with SK-OV-3 cells was over 20000 nM each time.

`CC[C@H](C)[C@@H]([C@@H](CC(=O)N1CCC[C@H]1[C@H](OC)[C@@H](C)C(=O)N[C@H](C)[C@@H](O)c1ccccc1)OC)N(C)C(=O)[C@@H](NC(=O)[C@H](C(C)C)N(C)C(=O)OCc1ccc(NC(=O)CNC(=O)[C@H](CC(C)C)NC(=O)[C@@H]2CCCN2C(=O)CN)cc1)C(C)C` [compound 7, H2N-GPLG-PABC-MMAE] (H-GPLG[PABC][NMeV]V[Dil][Dolaproine]-X1): the “release of free MMAE on incubation with active MMP-2” value in data set [9] was “not observed”.

As for `N=C(N)NCCC[C@@H]1NC(=O)CNC(=O)C[C@@H](C(=O)O)NC(=O)C[C@H]2NC(=O)[C@H](CNC1=O)N(Cc1ccccc1)C2=O` [compound 10, cyclo[DKP-isoDGR], reference compound], the 50% inhibitory concentration (IC50) in data set [5], in data set [6], in data set [7] and in data set [8] was over 20000 nM each time.
